Measurements reported in patent US20220023227A1, “SYSTEMS AND METHODS FOR FORMING NANOCAPSULES BY PULSED ELECTROSPRAYING” (priority 2020, published 2022).
“Also recorded” adds a separate entry of the source.

Legend:
4T1 tumor cells [1] = test: 4T1 mammary fat pad tumor growth and survival after 3 weekly doses; type: in vivo, BALB/c mice
Procedure: Highly aggressive 4T1 tumor cells were implanted into 4th mammary fat pad of BALB/c mice and treatment was started one week post-implantation and total 3 doses (one dose/week) were injected. […] Results are presented as mean±SD (3-5 mice in each group).
(§1) Murine 4T1 cells were originally isolated from a spontaneous mammary tumor in the BALB/c strain and have been reported to show characteristics of human triple-negative breast cancer (TNBC) subtype. We first implanted 50,000 4T1 tumor cells into mammary fat pad of syngeneic mice and started treatment one-week post-implantation. After 3 doses by injection (one dose/week), the treatment was terminated and mice were followed for tumor growth and survival. […] Second set of mice euthanized to examine metastatic colonization of tumor cells in the lungs 72h after the last injection.

4T1 tumor cells [2] = test: Metastatic outgrowth of disseminated 4T1 tumor cells, mice euthanized 72h after last injection; type: in vivo
From the text: Mice were sacrificed 3 days after the last dose injection to check the metastatic colonization of luciferase expressing 4T1 tumor cells. […] Results are presented as mean±SD (3 mice in each group).
as §1

Question: With `CC(=O)O[C@H]1C(=O)[C@@]2(C)[C@H]([C@H](OC(=O)c3ccccc3)[C@]3(O)C[C@H](OC(=O)[C@H](O)[C@@H](NC(=O)c4ccccc4)c4ccccc4)C(C)=C1C3(C)C)[C@]1(OC(C)=O)CO[C@@H]1C[C@@H]2O` [naked paclitaxel, paclitaxel] as the compound, how does the “survival compared with tumor bearing mice that did not have any treatment” value (4T1 tumor cells [1]; 3 doses, one dose/week) read?
Answer: The value was “longer”.

Question: And the “tumor size, difference between groups” value (4T1 tumor cells [1]; up to 42 days, FIG. 1b)?
Answer: The value was “no significant difference”.

Question: What about the “metastatic colonization of tumor cells in the lungs (ex vivo lung imaging)” value (4T1 tumor cells [2]; 72h after the last injection, 3 mice in each group, FIG. 2d-e) of the same compound?
Answer: Its value is “micro metastatic colonization; also recorded: only micro metastases”.

Question: What about the tumor weight (4T1 tumor cells [2]; IP-injection, 72h after the last injection, FIG. 2a-b) of the same compound?
Answer: The tumor weight was “decreased the tumor weight but this decrease was not significant; also recorded: decrease the tumor weight”.

Question: What about the “signal intensity of luciferase in lungs, difference between groups” value (4T1 tumor cells [2]; ex vivo lung imaging, FIG. 2d-e) of the same compound?
Answer: The value was “not significantly different”.
